Blank lines part the entries; values can stand above or below the compound they belong to.
Tested on: 945468-187-T-J2-PDC spheroids viability
Assay: Anticancer human tumor 945468-187-T-J2-PDC patient-derived rectal carcinoma cell line growth inhibition [PI3K]
Conditions: spheroids with HUVEC and MSC; for viability, T/C: stronger effect = lower value
Text: Combinatorial screen of targeted agents with the PI3K inhibitors inavolisib, alpelisib, duvelisib, and copanlisib in multi-cell type tumor spheroids
A high-throughput screen of multi-cell type tumor spheroids was designed to identify active combinations of targeted small molecules and PI3K pathway inhibitors. Complex spheroids include a stromal component modeled by human endothelial cells (HUVEC) and fibroblasts modeled by human mesenchymal stem cells (MSCs). The concentration ranges selected for each drug and investigational agent were based upon clinically achievable concentrations if the clinical Cmax of the agent was known.
Compounds. The drugs and investigational agents: inavolisib (NSC800729), alpelisib (NSC765974), duvelisib (NSC772469), copanlisib (NSC816437), ipatasertib (NSC767898), afuresertib (NSC778305), talazoparib (NSC767125), sapanisertib (NSC764658), selumetinib (NSC741078), tovorafenib (DAY101, NSC766906), vemurafenib (NSC761431), ravoxertinib (NSC781343), sotorasib (NSC818433), MRTX1133 (NSC 836407), abemaciclib (NSC 768073), palbociclib (NSC758247), venetoclax (NSC 766270), SY5609 (NSC837396), enzalutamide (NSC755605), and darolutamide (NSC825331), were obtained from the National Cancer Institute (NCI) Developmental Therapeutics Program Chemical Repository. The FDA-approved anticancer drug set is available from the NCI Developmental Therapeutics Program. […] The stock solutions were prepared in dimethyl sulfoxide (DMSO, Sigma-Aldrich, St. Louis, MO, cat. D2650) at 800-fold the tested concentration and stored at -70 degrees C prior to their use. All drugs and investigational agents were tested over a range starting from a high concentration at or near the clinical Cmax and decreasing in half-log increments. If the clinical Cmax for an agent had not been determined, the highest concentration tested was 10 microM.
Cell Culture. All cells were maintained in an incubator at 37 degrees C and 5% CO2 with 95% humidity. The PDC lines were cultured according to standard operating procedures established by the NCI PDMR (https://pdmr.cancer.gov/sops/default.htm). All PDCs were thawed and cultured in Matrigel-coated flasks prepared with a working solution of 1X Ham's F-12 nutrient mix, without supplementation (Invitrogen, Waltham, MA, cat. 11765054), 100 U/mL penicillin-streptomycin (Invitrogen, cat. 15140122), and 2.5% Matrigel (Corning Inc., Corning, NY, cat. 354248) for the first three passages. The 354836-022-R-J1-PDC, 475296-252-R-J1-PDC, and 997726-040-R-J2-PDC lines were cultured in 6A media, which includes advanced DMEM/F-12 (Thermo Fisher Scientific, cat. 12634028), 10 mM HEPES (Thermo Fisher Scientific, cat. 15630080), 1X GlutaMAX supplement (Thermo Fisher Scientific, cat. 35050061), 0.1 mg/mL primocin (InvivoGen, San Diego, CA, cat. ant-pm-2), 10% defined fetal bovine serum, heat inactivated (HyClone Laboratories Inc., Logan, UT, cat. SH30070.03HI), 50% L-WRN conditioned media (ATCC, cat. CRL-3276), 1.25 mM N-Acetyl-L-cysteine (Sigma-Aldrich, cat. A9165), 10 mM nicotinamide (Sigma-Aldrich, cat. N0636), 1X B-27 supplement (Thermo Fisher Scientific, cat. 17504044), 1X N-2 supplement (Thermo Fisher Scientific, cat. 17502048), and 10 microM Y-27632 dihydrochloride (Tocris Bioscience, Bristol, United Kingdom, cat. 1254). The 624824-186-R-J2-PDC line was cultured in 6C/Colon 1B media, which includes all 6A media components plus 50 ng/mL human EGF recombinant protein (Thermo Fisher Scientific, cat. PHG0311). […]

[1] = curve of first compound, second compound 0.00316 µM
[2] = curve of first compound, second compound 0.01 µM
[3] = curve of first compound, second compound 0.0316 µM
[4] = curve of first compound, second compound 0.1 µM
[5] = curve of first compound, second compound 0.316 µM
[6] = curve of first compound, second compound 1 µM
[7] = second compound 0.00316 µM, first compound 0.0316 µM
[8] = second compound 0.00316 µM, first compound 0.1 µM
[9] = second compound 0.00316 µM, first compound 0.316 µM
[10] = second compound 0.00316 µM, first compound 1 µM
[11] = second compound 0.00316 µM, first compound 3.16 µM
[12] = second compound 0.00316 µM, first compound 10 µM
[13] = second compound 0.01 µM, first compound 0.0316 µM
[14] = second compound 0.01 µM, first compound 0.1 µM
[15] = second compound 0.01 µM, first compound 0.316 µM
[16] = second compound 0.01 µM, first compound 1 µM
[17] = second compound 0.01 µM, first compound 3.16 µM
[18] = second compound 0.01 µM, first compound 10 µM
[19] = second compound 0.0316 µM, first compound 0.0316 µM
[20] = second compound 0.0316 µM, first compound 0.1 µM
[21] = second compound 0.0316 µM, first compound 0.316 µM
[22] = second compound 0.0316 µM, first compound 1 µM
[23] = second compound 0.0316 µM, first compound 3.16 µM
[24] = second compound 0.0316 µM, first compound 10 µM
[25] = second compound 0.1 µM, first compound 0.0316 µM
[26] = second compound 0.1 µM, first compound 0.1 µM
[27] = second compound 0.1 µM, first compound 0.316 µM
[28] = second compound 0.1 µM, first compound 1 µM
[29] = second compound 0.1 µM, first compound 3.16 µM
[30] = second compound 0.1 µM, first compound 10 µM
[31] = second compound 0.316 µM, first compound 0.0316 µM
[32] = second compound 0.316 µM, first compound 0.1 µM
[33] = second compound 0.316 µM, first compound 0.316 µM
[34] = second compound 0.316 µM, first compound 1 µM
[35] = second compound 0.316 µM, first compound 3.16 µM
[36] = second compound 0.316 µM, first compound 10 µM
[37] = second compound 1 µM, first compound 0.0316 µM
[38] = second compound 1 µM, first compound 0.1 µM
[39] = second compound 1 µM, first compound 0.316 µM
[40] = second compound 1 µM, first compound 1 µM
[41] = second compound 1 µM, first compound 3.16 µM
[42] = second compound 1 µM, first compound 10 µM
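Further: spheroids exposed to compounds for seven days before reading.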

IC50 (compound alone, run of 04/25/2023): 250 nM [middle of 7 runs]
Compound: COc1c(OCCCN2CCOCC2)ccc2c3n(c(=NC(=O)c4cnc(N)nc4)nc12)CCN3
viability, T/C (compound 0.00316 µM): 102% [middle of 8 runs]
viability, T/C (compound 0.316 µM): 40.8% [middle of 8 runs]
viability, T/C (compound 1 µM): 22.5% [middle of 8 runs]

IC50 [1]: > 10 µM
IC50 [2]: > 10 µM
IC50 [3]: > 10 µM
IC50 [4]: > 10 µM
IC50 [5]: < 0.0316 µM
IC50 [6]: < 0.0316 µM
Compound: Cn1nccc1Nc1nccc(-c2ccn(C(CO)c3ccc(Cl)c(F)c3)c(=O)c2)n1 (stereo not drawn) + COc1c(OCCCN2CCOCC2)ccc2c3n(c(=NC(=O)c4cnc(N)nc4)nc12)CCN3
viability, T/C [7]: 117%
viability, T/C [8]: 108%
viability, T/C [9]: 98.9%
viability, T/C [10]: 83.7%
viability, T/C [11]: 90.9%
viability, T/C [12]: 80.7%
viability, T/C [13]: 99%
viability, T/C [14]: 93.7%
viability, T/C [15]: 90.1%
viability, T/C [16]: 136%
viability, T/C [17]: 127%
viability, T/C [18]: 84.2%
viability, T/C [19]: 91.9%
viability, T/C [20]: 102%
viability, T/C [21]: 100%
viability, T/C [22]: 89.1%
viability, T/C [23]: 93.5%
viability, T/C [24]: 89.2%
viability, T/C [25]: 71%
viability, T/C [26]: 75.9%
viability, T/C [27]: 81.1%
viability, T/C [28]: 82.2%
viability, T/C [29]: 84.3%
viability, T/C [30]: 64.9%
viability, T/C [31]: 39.8%
viability, T/C [32]: 45.6%
viability, T/C [33]: 45.3%
viability, T/C [34]: 41.7%
viability, T/C [35]: 33.4%
viability, T/C [36]: 27.8%
viability, T/C [37]: 18.1%
viability, T/C [38]: 19.8%
viability, T/C [39]: 21.8%
viability, T/C [40]: 18.6%
viability, T/C [41]: 18.6%
viability, T/C [42]: 16.8%

IC50 [1]: > 10 µM
IC50 [2]: > 10 µM
IC50 [3]: > 10 µM
IC50 [4]: > 10 µM
IC50 [5]: > 10 µM
IC50 [6]: > 10 µM
Compound: CC(C)NCC(C(=O)N1CCN(c2ncnc3c2C(C)CC3O)CC1)c1ccc(Cl)cc1 (stereo not drawn) + CC(Nc1ccc2c(c1)OCCn1cc(N3C(=O)OCC3C(F)F)nc1-2)C(N)=O
viability, T/C [7]: 84.4%
viability, T/C [8]: 114%
viability, T/C [9]: 79.4%
viability, T/C [10]: 86.4%
viability, T/C [11]: 104%
viability, T/C [12]: 99.3%
viability, T/C [13]: 110%
viability, T/C [14]: 92.3%
viability, T/C [15]: 96.2%
viability, T/C [16]: 71.6%
viability, T/C [17]: 97.7%
viability, T/C [18]: 98.9%
viability, T/C [19]: 93.6%
viability, T/C [20]: 89.5%
viability, T/C [21]: 95.2%
viability, T/C [22]: 90.7%
viability, T/C [23]: 96.9%
viability, T/C [24]: 92.9%
viability, T/C [25]: 121%
viability, T/C [26]: 77.1%
viability, T/C [27]: 82.8%
viability, T/C [28]: 81.3%
viability, T/C [29]: 89.9%
viability, T/C [30]: 78.4%
viability, T/C [31]: 72.5%
viability, T/C [32]: 77.2%
viability, T/C [33]: 76.2%
viability, T/C [34]: 87%
viability, T/C [35]: 84.2%
viability, T/C [36]: 81.9%
viability, T/C [37]: 76.5%
viability, T/C [38]: 65.3%
viability, T/C [39]: 75.6%
viability, T/C [40]: 71.2%
viability, T/C [41]: 68.5%
viability, T/C [42]: 59.7%

IC50 (curve of compound): > 10 µM
Compound: C[C@@H](NC(=O)c1ncnc(N)c1Cl)c1ncc(C(=O)Nc2cc(C(F)(F)F)c(Cl)cn2)s1
viability, T/C (compound 0.0316 µM): 115% [middle of 4 runs]
viability, T/C (compound 0.1 µM): 95.1% [middle of 4 runs]
viability, T/C (compound 0.316 µM): 107% [middle of 4 runs]
viability, T/C (compound 10 µM): 94.3% [middle of 4 runs]

From PubChem BioAssay AID1963972 (Molecular Pharmacology Branch, DTP, NCI, 2024)
